Laboratory results taken from paper PMC5363373, “Zirconium tetraazamacrocycle complexes display extraordinary stability and provide a new strategy for zirconium-89-based radiopharmaceutical development” (Chemical Science, 2016).
Where “and” joins values, the source holds several entries; their conditions need not be identical. Equal values may be shown once.

Tests used:
[1] = In vitro EDTA challenge study; format: physicochemical
Experimental: In vitro EDTA challenge study. In vitro EDTA challenge study was carried out by adding 10 µL of each 89Zr-labeled complex (70 μCi, 2.59 MBq) to 500 µL of EDTA (10 mM, 50 mM and 100 mM: pH 5 and pH 7) with a 1:100, 1:500, and 1:1000 ratio of ligand/EDTA. The solutions (n=4) were incubated at 37 °C for 7 days in a thermomixer. Samples were analyzed at 30 min, 1 h, 3 h, 6 h, 1 d, 3 d, 5 d and 7 d post administration to EDTA by radio-TLC using Varian ITLC-SA strips and 0.1 M EDTA (pH 5) as the mobile phase and gamma counting using an energy window of 500-1500 keV and standard protocols .

[2] = In vitro metal competition study; format: physicochemical; details: for % Intact of 89Zr-complexes: PBS pH 7.4, 37 C
Experimental: In vitro Metal Competition study. To a solution of metal cations [iron (III) chloride, cobalt (II) chloride, zinc (II) chloride, copper (II) chloride, magnesium (II) chloride, gallium (III) nitrate, gadolinium (III) chloride] (1 mM, 200 µL), was added 89Zr-labeled complex (0.1 mM, 10 µL, 80 μCi, 2.96 MBq) in PBS, pH 7.4. The resulting solutions (n = 3) were incubated at 37 °C for 7 days in a thermomixer. Dissociation of 89Zr from 89Zr-complexes was monitored by radio-TLC at 2 h, 1 d, 4 d and 7 d time point. All studies were performed in triplicate.

[3] = In vitro serum stability (radio-ITLC); format: in vitro ADME; details: 37 C, after 7 days
Experimental: In vitro serum stability. In vitro serum stability was carried out by adding 10 µL of each 89Zr-labeled complex (70 μCi, 2.59 MBq) to 500 µL of human serum. The solutions (n=4) were incubated at 37 °C for 7 days and were analyzed daily for 1 week by radio -TLC using Varian ITLC-SA strips and 0.1 M EDTA (pH 5) as the mobile phase and gamma counting using an energy window of 500-1500 keV and standard protocols . Serum samples were also analyzed after 7 days by size exclusion chromatography (SEC) using a Superdex 200 10/300 GLTM column (GE Healthcare Life Sciences, Piscataway, NJ) and phosphate buffered saline (PBS) as eluent with a flow rate of 0.5 mL/min.
Figure S30. Radio-ITLC of 89Zr-DOTA solution in human serum at 37 °C after 0 h (a) and 7 days (b). […]

Biodistribution studies = format: in vivo, female NIH Swiss mice
Experimental: Biodistribution Studies. Biodistribution studies were conducted using a modified literature procedure. 7 Briefly, female NIH Swiss mice (6-8 wk old, n=6) were injected with each 89Zr-labeled complex (0.55 MBq (15 μCi)/mouse) via the tail vein, and sacrificed at 2, 4, 24, 48, 72 h post-injection. Organs and tissues of interest were excised, weighted, and counted on a Perkin Elmer 2480 Wizard® gamma counter (Waltham, MA). The percent injected dose per gram (%ID/g) and percent injected dose per organ (%ID/organ) were calculated by comparison to a weighed, counted standard for each group (Tables S9 – S12).
Statistical Methods. All of the data are presented as mean±SD or mean (95% Confidence Interval). For statistical classification a student’s t test (two-tailed, unpaired) was performed using GraphPad Prism (San Diego, CA). Any p<0.05 was considered significant.

[4] = mice, intravenous, 72 h post-injection

O=C1CN2CCN3CCN4CCN(CC2)CC(=O)[O][89Zr]([O]1)([O]C(=O)C3)[O]C(=O)C4 [89Zr-DOTA]
Transchelation in EDTA challenge ([1]; 100-, 500-, and 1000-fold excess of EDTA at pH 5 or pH 7 over 7 days): did not undergo transchelation | % Intact of 89Zr-complexes ([1]; EDTA 100-fold, pH 5.0, 37 C, 1 h): 100% | % Intact of 89Zr-complexes ([1]; EDTA 100-fold, pH 5.0, 37 C, 1 d): 100% | % Intact of 89Zr-complexes ([1]; EDTA 100-fold, pH 5.0, 37 C, 3 d): 100% | % Intact of 89Zr-complexes ([1]; EDTA 100-fold, pH 5.0, 37 C, 5 d): 100% | % Intact of 89Zr-complexes ([1]; EDTA 100-fold, pH 5.0, 37 C, 7 d): 100% | % Intact of 89Zr-complexes ([1]; EDTA 100-fold, pH 7.0, 37 C, 1 h): 100% | % Intact of 89Zr-complexes ([1]; EDTA 100-fold, pH 7.0, 37 C, 1 d): 100% | % Intact of 89Zr-complexes ([1]; EDTA 100-fold, pH 7.0, 37 C, 3 d): 100% | % Intact of 89Zr-complexes ([1]; EDTA 100-fold, pH 7.0, 37 C, 5 d): 100% | % Intact of 89Zr-complexes ([1]; EDTA 100-fold, pH 7.0, 37 C, 7 d): 100% | % Intact of 89Zr-complexes ([1]; EDTA 500-fold, pH 5.0, 37 C, 1 h): 100% | % Intact of 89Zr-complexes ([1]; EDTA 500-fold, pH 5.0, 37 C, 1 d): 100% | % Intact of 89Zr-complexes ([1]; EDTA 500-fold, pH 5.0, 37 C, 3 d): 100% | % Intact of 89Zr-complexes ([1]; EDTA 500-fold, pH 5.0, 37 C, 5 d): 100% | % Intact of 89Zr-complexes ([1]; EDTA 500-fold, pH 5.0, 37 C, 7 d): 100% | % Intact of 89Zr-complexes ([1]; EDTA 500-fold, pH 7.0, 37 C, 1 h): 100% | % Intact of 89Zr-complexes ([1]; EDTA 500-fold, pH 7.0, 37 C, 1 d): 100% | % Intact of 89Zr-complexes ([1]; EDTA 500-fold, pH 7.0, 37 C, 3 d): 100% | % Intact of 89Zr-complexes ([1]; EDTA 500-fold, pH 7.0, 37 C, 5 d): 100% | % Intact of 89Zr-complexes ([1]; EDTA 500-fold, pH 7.0, 37 C, 7 d): 100% | % Intact of 89Zr-complexes ([1]; EDTA 1000-fold, pH 5.0, 37 C, 1 h): 100% | % Intact of 89Zr-complexes ([1]; EDTA 1000-fold, pH 5.0, 37 C, 1 d): 100% | % Intact of 89Zr-complexes ([1]; EDTA 1000-fold, pH 5.0, 37 C, 3 d): 100% | % Intact of 89Zr-complexes ([1]; EDTA 1000-fold, pH 5.0, 37 C, 5 d): 100% | % Intact of 89Zr-complexes ([1]; EDTA 1000-fold, pH 5.0, 37 C, 7 d): 100% | % Intact of 89Zr-complexes ([1]; EDTA 1000-fold, pH 7.0, 37 C, 1 h): 100% | % Intact of 89Zr-complexes ([1]; EDTA 1000-fold, pH 7.0, 37 C, 1 d): 100% | % Intact of 89Zr-complexes ([1]; EDTA 1000-fold, pH 7.0, 37 C, 3 d): 100% | % Intact of 89Zr-complexes ([1]; EDTA 1000-fold, pH 7.0, 37 C, 5 d): 100% | % Intact of 89Zr-complexes ([1]; EDTA 1000-fold, pH 7.0, 37 C, 7 d): 100% | % Intact of 89Zr-complexes ([2]; Co2+, 2 h): 100% | % Intact of 89Zr-complexes ([2]; Co2+, 1 d): 100% | % Intact of 89Zr-complexes ([2]; Co2+, 4 d): 100% | % Intact of 89Zr-complexes ([2]; Co2+, 7 d): 100% | % Intact of 89Zr-complexes ([2]; Cu2+, 2 h): 100% | % Intact of 89Zr-complexes ([2]; Cu2+, 1 d): 100% | % Intact of 89Zr-complexes ([2]; Cu2+, 4 d): 100% | % Intact of 89Zr-complexes ([2]; Cu2+, 7 d): 100% | % Intact of 89Zr-complexes ([2]; Fe3+, 2 h): 100% | % Intact of 89Zr-complexes ([2]; Fe3+, 1 d): 100% | % Intact of 89Zr-complexes ([2]; Fe3+, 4 d): 100% | % Intact of 89Zr-complexes ([2]; Fe3+, 7 d): 100% | % Intact of 89Zr-complexes ([2]; Ga3+, 2 h): 100% | % Intact of 89Zr-complexes ([2]; Ga3+, 1 d): 100% | % Intact of 89Zr-complexes ([2]; Ga3+, 4 d): 100% | % Intact of 89Zr-complexes ([2]; Ga3+, 7 d): 100% | % Intact of 89Zr-complexes ([2]; Gd3+, 2 h): 100% | % Intact of 89Zr-complexes ([2]; Gd3+, 1 d): 100% | % Intact of 89Zr-complexes ([2]; Gd3+, 4 d): 100% | % Intact of 89Zr-complexes ([2]; Gd3+, 7 d): 100% | % Intact of 89Zr-complexes ([2]; Mg2+, 2 h): 100% | % Intact of 89Zr-complexes ([2]; Mg2+, 1 d): 100% | % Intact of 89Zr-complexes ([2]; Mg2+, 4 d): 100% | % Intact of 89Zr-complexes ([2]; Mg2+, 7 d): 100% | % Intact of 89Zr-complexes ([2]; Zn2+, 2 h): 100% | % Intact of 89Zr-complexes ([2]; Zn2+, 1 d): 100% | % Intact of 89Zr-complexes ([2]; Zn2+, 4 d): 100% | % Intact of 89Zr-complexes ([2]; Zn2+, 7 d): 100% | Demetallation in metal competition ([2]; excess metal salts in aqueous buffer, over the 7 day experiment): no demetallation | Radio-ITLC peak of complex in human serum [3]: 100% | Blood (Biodistribution studies; 24 h, current study): 0.001±0.000 % ID/g | Bone (Biodistribution studies; 24 h, current study): 0.036±0.008 % ID/g | Heart (Biodistribution studies; 24 h, current study): 0.016±0.004 % ID/g | Kidney (Biodistribution studies; 24 h, current study): 0.317±0.054 % ID/g | Liver (Biodistribution studies; 24 h, current study): 0.068±0.004 % ID/g | Muscle (Biodistribution studies; 24 h, current study): 0.004±0.001 % ID/g | Radioactivity in blood (Biodistribution studies; [4]): 0.0003 ± 0.001 % ID per g and 0.0003 ± 0.0008 % ID per g | Radioactivity in bone (Biodistribution studies; [4]): 0.025 ± 0.009 % ID per g | Radioactivity in kidney (Biodistribution studies; [4]): 0.078 ± 0.009 % ID per g | Radioactivity in liver (Biodistribution studies; [4]): 0.021 ± 0.002 % ID per g | Radioactivity retention in bone tissue over time (Biodistribution studies; mice, time points up to 72 h): remained low
